#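 Grown in 96-well plates, cells were treated for 48 hours with each compound at five concentrations. Insufficient inhibition: endpoint recorded as highest concentration tested. GI50: concentration for 50% inhibition of growth. TGI: total growth inhibition.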
# Columns and labels:
# Experiment in all cases: inhibition of tumour cell growth, NCI panel, 48 h
# A498 renal = tested on: A498 renal
# A549 NSCLC = tested on: A549 NSCLC
# CAKI-1 renal = tested on: CAKI-1 renal
# HCT-15 colon = tested on: HCT-15 colon
# MALME-3M melanoma = tested on: MALME-3M melanoma
# NCI-H460 lung = tested on: NCI-H460 lung
# NCI/ADR-RES ovarian = tested on: NCI/ADR-RES ovarian
# OVCAR-5 ovarian = tested on: OVCAR-5 ovarian
# U251 CNS = tested on: U251 CNS
# DMS 273 small cell lung = tested on: DMS 273 small cell lung
# M19-MEL melanoma = tested on: M19-MEL melanoma
SMILES,TGI (A498 renal),TGI (A549 NSCLC),TGI (CAKI-1 renal),TGI (HCT-15 colon),TGI (MALME-3M melanoma),TGI (NCI-H460 lung),TGI (NCI/ADR-RES ovarian),TGI (OVCAR-5 ovarian),TGI (U251 CNS),TGI (DMS 273 small cell lung),TGI (M19-MEL melanoma),GI50 (A498 renal),GI50 (A549 NSCLC),GI50 (CAKI-1 renal),GI50 (HCT-15 colon),GI50 (MALME-3M melanoma),GI50 (NCI-H460 lung),GI50 (NCI/ADR-RES ovarian),GI50 (OVCAR-5 ovarian),GI50 (U251 CNS)
CC(C)(O)CO/N=C1\C(c2c(O)[nH]c3ccccc23)=Nc2ccccc21,3.63 µM,11.1 µM,2.32 µM,30.7 µM,> 60.6 µM,9.71 µM,> 64.8 µM,9.3 µM,> 68.4 µM,–,–,–,–,–,–,–,–,–,–,–
C/C=C1/CN2CCC34c5ccccc5N(C)C23C2CC1C4(C(=O)OC)C(O)O2 (stereo not given),> 100 µM,> 100 µM,> 100 µM,> 100 µM,–,> 100 µM,> 100 µM,> 100 µM,> 100 µM,–,–,–,–,–,–,–,–,–,–,–
CNS(=O)(=O)c1ccc2[nH]c(O)c(C3=Nc4ccccc4C3=O)c2c1,> 100 µM,> 100 µM,> 100 µM,> 100 µM,> 100 µM,> 100 µM,> 100 µM,> 100 µM,39.8 µM,–,–,–,–,–,–,–,–,–,–,–
Cc1ccc([N+](=O)[O-])cc1S(=O)(=O)Nc1ccc(C2=NN(C(=O)c3ccccc3)C(c3cccs3)C2)cc1 (stereo not given),50.8 µM,> 100 µM,> 100 µM,> 100 µM,68.6 µM,–,> 100 µM,> 100 µM,> 100 µM,–,–,–,–,–,–,–,–,–,–,–
N#CCCOCN(CO)c1nc(N(CO)COCCC#N)nc(N(CO)COCCC#N)n1,> 100 µM,58.3 µM,–,37.3 µM,46.9 µM,81.3 µM,–,> 100 µM,> 100 µM,32.8 µM,50 µM,–,–,–,–,–,–,–,–,–
NC(=O)Nc1ccc(C(=O)NCCCNC(=O)c2ccc(NC(N)=O)cc2)cc1,> 100 µM,> 100 µM,> 100 µM,> 100 µM,> 100 µM,> 100 µM,> 100 µM,> 100 µM,> 100 µM,–,–,–,–,–,–,–,–,–,–,–
CCCC1=C(C(=O)OCC)C(c2ccccc2OC)C(C#N)=C(N)O1 (stereo not given),> 100 µM,> 100 µM,> 100 µM,> 100 µM,> 100 µM,> 100 µM,> 100 µM,> 100 µM,> 100 µM,–,–,62.2 µM,> 100 µM,57.5 µM,50.3 µM,27.8 µM,39.8 µM,37.6 µM,> 100 µM,44.7 µM
Cc1c(NC(=O)c2cc([N+](=O)[O-])cc([N+](=O)[O-])c2)c(=O)n(-c2ccccc2)n1C,> 100 µM,> 100 µM,> 100 µM,> 100 µM,> 100 µM,> 100 µM,> 100 µM,–,> 100 µM,–,–,–,–,–,–,–,–,–,–,–
C[C@H](N[C@H]1CCC[C@]1(O)C#Cc1ccc2c(c1)OCO2)c1ccccc1,> 25 µM,> 25 µM,> 25 µM,> 25 µM,–,> 25 µM,> 25 µM,> 25 µM,> 25 µM,–,–,–,–,–,–,–,–,–,–,–
O=C(NCCNc1nccc(-c2c(-c3cccc(O)c3)nc3sccn23)n1)Nc1cccc(C(F)(F)F)c1,32.6 µM,8.44 µM,50.5 µM,24.1 µM,7.3 µM,20.8 µM,> 100 µM,65.3 µM,23.6 µM,–,–,7.33 µM,2.98 µM,14.2 µM,4.26 µM,2.09 µM,4.79 µM,26.9 µM,16.3 µM,4.95 µM
COc1cc2c(cc1OC)C1Cc3cc(OC)c(OC)cc3C(C2)O1,–,> 100 µM,> 100 µM,–,–,> 100 µM,> 100 µM,> 100 µM,> 100 µM,–,–,–,–,–,–,–,–,–,–,–
COc1ccccc1/C=C/c1c(N)ncnc1Nc1cccc(Cl)c1,30.9 µM,41.6 µM,58.9 µM,52.5 µM,59.7 µM,57.1 µM,–,> 100 µM,34.4 µM,–,–,–,–,–,–,–,–,–,–,–
N#Cc1c(-c2cccc(Cl)c2)cc(-c2ccc(Cl)cc2)nc1N,–,36.1 µM,86 µM,32.9 µM,58.4 µM,39.2 µM,63.5 µM,42.9 µM,30.9 µM,–,–,–,–,–,–,–,–,–,–,–
Cc1ccc2ccc3ccc(C)nc3c2n1,> 100 µM,> 100 µM,> 100 µM,> 100 µM,> 100 µM,> 100 µM,> 100 µM,> 100 µM,> 100 µM,> 100 µM,> 100 µM,–,–,–,–,–,–,–,–,–
COc1c(O)c(O)c2c(c1O)C(=O)c1cc(C)cc(O)c1C2=O,> 100 µM,> 100 µM,> 100 µM,> 100 µM,83.5 µM,> 78 µM,47.3 µM,> 100 µM,> 100 µM,–,–,–,–,–,–,–,–,–,–,–
Cc1c2cc[n+](C)cc2c(C)c2c1[nH]c1ccc(Cl)cc12,1.4 µM,4.15 µM,53.4 µM,> 100 µM,10.4 µM,54 µM,> 100 µM,84.4 µM,1.15 µM,35.7 µM,3.94 µM,–,–,–,–,–,–,–,–,–
C[C@@H](CO)C1=CC(C#C[Si](C)(C)C)N(C(=O)Oc2ccccc2)c2ccccc21 (stereo not given in full),–,61.4 µM,56.8 µM,21.7 µM,–,37.4 µM,31.3 µM,57.1 µM,35.8 µM,–,–,–,–,–,–,–,–,–,–,–
CN=C(N)/N=C(\N)Nc1cc2ccccc2c2ccccc12,23.3 µM,30.8 µM,31.2 µM,33.4 µM,29.3 µM,24.4 µM,49.9 µM,33 µM,28.5 µM,–,–,–,–,–,–,–,–,–,–,–
CCOC(=O)C(=O)Nc1c(CC)cccc1C(C)CC (stereo not given),> 100 µM,> 100 µM,> 100 µM,> 100 µM,> 100 µM,> 100 µM,–,> 100 µM,> 100 µM,> 100 µM,> 100 µM,–,–,–,–,–,–,–,–,–
CSc1ccc(-c2cc(-c3nc4ccccc4[nH]3)nc(N)c2C#N)cc1,50 µM,> 100 µM,54.4 µM,61.9 µM,44.5 µM,72.5 µM,> 100 µM,75.2 µM,–,–,–,–,–,–,–,–,–,–,–,–
c1ccc(CCN2CCOCC2)nc1,> 100 µM,> 100 µM,> 100 µM,> 100 µM,> 100 µM,> 100 µM,> 100 µM,> 100 µM,> 100 µM,–,–,–,–,–,–,–,–,–,–,–
